Molecular target: T1, N-terminally GST-tagged human full length recombinant Mps-1 kinase (Homo sapiens, UniProt P33981)
T1 construct: N-terminally GST-tagged human full length recombinant Mps-1 kinase; purchased Invitrogen, Karslruhe, Germany PV4071
T1 sequence (P33981 1-857): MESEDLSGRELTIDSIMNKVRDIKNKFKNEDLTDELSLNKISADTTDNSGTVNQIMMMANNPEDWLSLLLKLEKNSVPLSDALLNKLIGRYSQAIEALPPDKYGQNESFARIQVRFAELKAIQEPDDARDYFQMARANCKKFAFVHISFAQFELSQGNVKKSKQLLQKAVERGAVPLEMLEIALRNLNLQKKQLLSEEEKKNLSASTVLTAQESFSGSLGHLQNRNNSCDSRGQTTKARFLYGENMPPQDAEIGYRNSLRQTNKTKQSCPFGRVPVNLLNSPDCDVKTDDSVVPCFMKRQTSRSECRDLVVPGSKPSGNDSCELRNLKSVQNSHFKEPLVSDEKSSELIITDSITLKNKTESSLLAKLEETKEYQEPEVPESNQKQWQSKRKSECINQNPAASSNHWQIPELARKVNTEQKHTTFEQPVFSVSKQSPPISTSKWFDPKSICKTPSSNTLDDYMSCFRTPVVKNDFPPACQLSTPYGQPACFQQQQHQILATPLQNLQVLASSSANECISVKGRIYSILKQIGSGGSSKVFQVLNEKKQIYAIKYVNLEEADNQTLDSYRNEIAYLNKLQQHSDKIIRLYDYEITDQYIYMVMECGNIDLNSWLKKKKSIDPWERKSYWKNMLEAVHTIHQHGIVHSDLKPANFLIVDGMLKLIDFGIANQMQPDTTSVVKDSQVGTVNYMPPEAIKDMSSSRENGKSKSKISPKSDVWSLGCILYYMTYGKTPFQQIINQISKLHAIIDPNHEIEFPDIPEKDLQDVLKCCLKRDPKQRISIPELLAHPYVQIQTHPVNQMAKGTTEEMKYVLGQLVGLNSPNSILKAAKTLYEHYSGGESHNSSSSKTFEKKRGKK
Assay: Mps-1 kinase assay (TR-FRET)
Type: biochemical
Conditions: Mps1 IC50 [nM], 10 μM ATP, 1 μM peptide substrate, 60 min at 22° C.
Method in brief: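 GST-tagged full-length recombinant Mps-1 at about 1 nM final, adjusted per lot for linear range, phosphorylated a biotinylated peptide. Product bound Eu-anti-phospho(Ser/Thr) antibody over 1 h at 22° C and was read by TR-FRET to streptavidin-XLent. Compounds scored for kinase inhibition.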

Row | Structure (SMILES) | IC50 [nM]
1 | CC=C(C)c1cc(NCC(C)(C)O)c2ncc(-c3ccc(-c4cnc(C5CC5)[nH]4)cc3)n2n1 (mixture of isomers) [Example 1, 1-({6-[(2E/Z)-But-2-en-2-yl]-3-[4-(2-cyclopropyl-1H-imidazol-5-yl)phenyl]imidazo[1,2-b]pyridazin-8-yl}amino)-2-methylpropan-2-ol] | 61.1
2 | CC(C)CNc1cc(-c2ccc(O)cc2)nn2c(-c3ccc(C(=O)NC4CC4)cc3)cnc12 [Example 141, N-cyclopropyl-4-{6-(4-hydroxyphenyl)-8-[(2-methylpropyl)amino]imidazo[1,2-b]pyridazin-3-yl}benzamide] | 2.4
3 | Cc1cc(-c2cnc3c(NCCC(F)(F)F)cc(-c4ccccc4CO)nn23)ccc1C(=O)NC1CC1 [Example 20, N-cyclopropyl-4-{6-[2-(hydroxymethyl)phenyl]-8-[(3,3,3-trifluoropropyl)amino]imidazo[1,2-b]pyridazin-3-yl}-2-methylbenzamide] | 1.2
4 | Cc1cc(-c2cnc3c(NCC4CCOC4)cc(-c4ccccc4CO)nn23)ccc1C(=O)NC1CC1 (racemic) [Example 345, (RS)-N-cyclopropyl-4-{6-[2-(hydroxy-methyl)phenyl]-8-[(tetrahydro-furan-3-ylmethyl)amino]imidazo [1,2-b]pyridazin-3-yl}-2-methyl-benzamide] | 3
5 | Cc1cc(-c2cnc3c(NCC(C)(C)O)cc(OCC4CC4(F)F)nn23)ccc1C(=O)NC1CC1 (racemic) [Example 240, (RS)—N-cyclopropyl-4-{6-[(2,2-difluorocyclopropyl)methoxy]-8-[(2-hydroxy-2-methylpropyl)amino]imidazo[1,2-b]pyridazin-3-yl}-2-methylbenzamide] | 1.2
6 | CCNC(=O)c1ccc(-c2cnc3c(NCCOC)cc(Oc4ccc(OC)c(F)c4)nn23)cc1C [Example 610, N-ethyl-4-{6-(3-fluoro-4-methoxyphenoxy)-8-[(2-methoxyethyl)a-mino]imidazo[1,2-b]pyridazin-3-yl}-2-methylbenzamide] | < 1
7 | COc1cc(Nc2cc(NCC(C)(C)O)c3ncc(-c4ccc(C(=O)NC5CC5)c(C)c4)n3n2)ccc1F [Example 400, N-cyclopropyl-4-{6-[(4-fluoro-3-methoxyphenyl)amino]-8-[(2-hydroxy-2-methylpropyl)amino]imidazo[1,2-b]pyridazin-3-yl}-2-methylbenzamide] | 3.1
8 | CC(C)(O)CNc1cc(-c2ccc(F)cc2)nn2c(-c3ccc(C(=O)NC4CC4)cc3)cnc12 [Example 19, N-cyclopropyl-4-{6-(4-fluorophenyl)-8-[(2-hydroxy-2-methylpropyl)amino]imidazo[1,2-b]pyridazin-3-yl}benzamide] | 1.6
9 | Cn1nccc1-c1cc(NC[C@H](O)[C@H]2COC(C)(C)O2)c2ncc(-c3ccc(C(=O)NC4CC4)cc3)n2n1 [Example 192, N-cyclopropyl-4-[8-({(2S)-2-[(4R)-2,2-dimethyl-1,3-dioxolan-4-yl]-2-hydroxyethyl}amino)-6-(1-methyl-1H-pyrazol-5-yl)imidazo[1,2-b]pyridazin-3-yl]benzamide] | 21.5
10 | CC(C)CNc1cc(-c2ccc(C(N)=O)cc2)nn2c(-c3ccc(C(=O)NC4CC4)cc3)cnc12 [Example 113, 4-{6-(4-Carbamoylphenyl)-8-[(2-methylpropyl)amino]imidazo[1,2-b]pyridazin-3-yl}-N-cyclopropylbenzamide] | 2
11 | CCNC(=O)c1ccc(-c2cnc3c(NCC4CCOCC4)cc(Oc4ccc(OC)cc4F)nn23)cc1C [Example 598, N-ethyl-4-{6-(2-fluoro-4-methoxyphenoxy)-8-[(tetrahydro-2H-pyran-4-ylmethyl)a-mino]imidazo[1,2-b]pyridazin-3-yl}-2-methylbenzamide] | < 1
12 | CCNC(=O)c1ccc(-c2cnc3c(NCC4CCOCC4)cc(Oc4ccccc4C)nn23)cc1C [Example 596, N-ethyl-2-methyl-4-{6-(2-methylphenoxy)-8-[(tetrahydro-2H-pyran-4-ylmethyl)a-mino]imidazo[1,2-b]pyridazin-3-yl}benzamide] | 1.1
13 | CNC(=O)c1ccc(-c2cnc3c(NCC4CCOCC4)cc(Oc4cccc(F)c4)nn23)cc1C [Example 569, 4-{6-(3-fluorophenoxy)-8-[(tetrahydro-2H-pyran-4-ylmethyl)amino]imidazo[1,2-b]pyridazin-3-yl}-N,2-dimethylbenzamide] | < 1
14 | OCc1ccccc1-c1cc(NCCC(F)(F)F)c2ncc(-c3ccc(C(=S)NC4CC4)cc3)n2n1 [Example 44, N-cyclopropyl-4-{6-[2-(hydroxymethyl)phenyl]-8-[(3,3,3-trifluoropropyl)amino]imidazo[1,2-b]pyridazin-3-yl}benzenecarbothioamide] | 2.6
15 | CC(C)CNc1cc(-c2ccc(-c3ccccc3)cc2)nn2c(-c3ccc(C(=O)NC4CC4)cc3)cnc12 [Example 130, 4-{6-(Biphenyl-4-yl)-8-[(2-methylpropyl)amino]imidazo[1,2-b]pyridazin-3-yl}-N-cyclopropylbenzamide] | 5.9
16 | COCCNc1cc(NCC(C)(C)O)c2ncc(-c3ccc(C(=O)NC4CC4)c(C)c3)n2n1 [Example 331, N-cyclopropyl-4-{8-[(2-hydroxy-2-methylpropyl)amino]-6-[(2-methoxy-ethyl)amino]imidazo[1,2-b]pyridazin-3-yl}-2-methylbenzamide] | 12.6
17 | Cc1cc(-c2cnc3c(NCC(C)C)cc(-c4ccn[nH]4)nn23)ccc1C(=O)NC1CC1 [Example 195, N-cyclopropyl-2-methyl-4-{8-[(2-methylpropyl)amino]-6-(1H-pyrazol-5-yl)imidazo[1,2-b]pyridazin-3-yl}benzamide] | 3.2

Continued, values first:

Row | IC50 [nM] | Structure (SMILES)
18 | < 1 | Cc1cc(-c2cnc3c(NCCC(F)(F)F)cc(-c4ccc(F)cc4)nn23)ccc1C(=O)NC1CC1 [Example 28, N-cyclopropyl-4-{6-(4-fluorophenyl)-8-[(3,3,3-trifluoropropyl)amino]imidazo[1,2-b]pyridazin-3-yl}-2-methylbenzamide]
19 | 0.4 | Cc1cc(F)cc(Oc2cc(NCCC(F)(F)F)c3ncc(-c4ccc(C(=O)NC5CC5)c(C)c4)n3n2)c1 [Example 88, N-cyclopropyl-4-{6-(3-fluoro-5-methylphenoxy)-8-[(3,3,3-trifluoropropyl)amino]imidazo[1,2-b]pyridazin-3-yl}-2-methylbenzamide]
20 | 0.2 | Cc1cc(-c2cnc3c(NCC(C)(C)O)cc(Oc4cccc(Cl)c4)nn23)ccc1C(=O)NC1CC1 [Example 85, 4-{6-(3-Chlorophenoxy)-8-[(2-hydroxy-2-methylpropyl)amino]imidazo[1,2-b]pyridazin-3-yl}-N-cyclopropyl-2-methylbenzamide]
21 | < 0.1 | Cc1cc(Sc2cc(NCC(C)(C)O)c3ncc(-c4ccc(C(=O)NC5CC5)c(C)c4)n3n2)ccc1O [Example 63, N-cyclopropyl-4-{6-[(4-hydroxy-3-methylphenyl)sulfanyl]-8-[(2-hydroxy-2-methylpropyl)amino]imidazo[1,2-b]pyridazin-3-yl}-2-methylbenzamide]
22 | 0.4 | Cc1cc(-c2cnc3c(NCCC(F)(F)F)cc(Oc4ccccc4F)nn23)ccc1C(=O)NC1CC1 [Example 473, N-cyclopropyl-4-{6-(2-fluorophenoxy)-8-[(3,3,3-trifluoropropyl)amino]imidazo[1,2-b]pyridazin-3-yl}-2-methyl-benzamide]
23 | 0.5 | Cc1cc(-c2cnc3c(NCC4CCSCC4)cc(Oc4ccc(Cl)cc4)nn23)ccc1C(=O)NC1CC1 [Example 292, 4-{6-(4-chlorophenoxy)-8-[(tetrahydro-2H-thiopyran-4-ylmethyl)amino]imidazo[1,2-b]pyridazin-3-yl}-N-cyclopropyl-2-methylbenzamide]
24 | 0.2 | Cc1cc(-c2cnc3c(NCC(C)(C)O)cc(Sc4cccc(O)c4)nn23)ccc1C(=O)NC1CC1 [Example 61A, N-cyclopropyl-4-{8-[(2-hydroxy-2-methylpropyl)amino]-6-[(3-hydroxyphenyl)sulfanyl]imidazo[1,2-b]pyridazin-3-yl}-2-methylbenzamide]
25 | 0.2 | Cc1cc(-c2cnc3c(NCCC(F)(F)F)cc(Sc4cc(F)cc(F)c4)nn23)ccc1C(=O)NC1CC1 [Example 251, N-cyclopropyl-4-{6-[(3,5-difluorophenyl)sulfanyl]-8-[(3,3,3-trifluoropropyl)amino]imidazo[1,2-b]pyridazin-3-yl}-2-methylbenzamide]
26 | 0.7 | Cc1cc(-c2cnc3c(NCCC(F)(F)F)cc(Oc4cccc(F)c4)nn23)ccc1C(=O)NC(C)C [Example 553, 4-{6-(3-fluorophenoxy)-8-[(3,3,3-trifluoropropyl)amino]imidazo[1,2-b]pyridazin-3-yl}-N-isopropyl-2-methylbenzamide]

Reference: patent US9255100B2 (BAYER INTELLECTUAL PROPERTY GMBH, priority 2010, dated 2016)
